These results are taken from patent US20240101576A1, “HETEROCYCLIC INHIBITORS OF EGFR AND/OR HER2, FOR USE IN THE TREATMENT OF CANCER” (Scorpion Therapeutics, Inc., priority 2020, published 2024).

What all share (type): cell-based
Assay [1] deals with T1, EGFR L858R (Ba/F3 cells) (Homo sapiens, UniProt P00533, L858R).
T1 construct: expressed in transfected cells; host or cells: Ba/F3 (murine pro-B cells), retroviral transduction, puromycin selection, IL3-independent pool
The experiment in a line: Inhibitor activity on EGFR-dependent cell growth (CellTiter-Glo, 72 h), Ba/F3 EGFR L858R. Conditions: read-out: BaF3 L858R IC50. The method, boiled down: (§1)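 Compounds, serially diluted 3-fold over 10 points in DMSO and added at 120 nL per well, act on Ba/F3 EGFR-mutant cells for 72 h. Seeding is 800 (exon 19del, FQEA), 600 (L858R/C797S) or 400 (L858R) cells/well. CTG luminescence is fitted with a four-parameter logistic curve to give IC50.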
(In ATP-based viability assays light output follows the ATP content of the culture.)

Assay [2] concerns the target T2, EGFR exon 19del (Ba/F3 cells) (Homo sapiens, UniProt P00533). The experiment in a line: Inhibitor activity on EGFR-dependent cell growth (CellTiter-Glo, 72 h), Ba/F3 EGFR exon 19del. The settings on record: Ba/F3 EGFR exon 19del cell growth, read-out: BaF3 Del19 IC50. The method, boiled down: as §1
For assay [3], the target named is T3, EGFR L858R/C797S (Ba/F3 cells) (Homo sapiens, UniProt P00533, C797S/L858R).
T3 construct: expressed in transfected cells; host or cells: Ba/F3 (murine pro-B cells), retroviral transduction, puromycin selection, IL3-independent pool
The experiment in a line: Inhibitor activity on EGFR-dependent cell growth (CellTiter-Glo, 72 h), Ba/F3 EGFR L858R/C797S. Conditions: read-out: BaF3 L858R/C797S IC50. The essentials: as §1

In assay [4] the target is T1, EGFR L858R (Ba/F3 cells). As to the kind of experiment: Inhibitor activity on EGFR phosphorylation (pEGFR AlphaLISA, 2 h), Ba/F3 EGFR L858R. The method, boiled down: (§2)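 Ba/F3 cells made IL3-independent by retroviral EGFR mutant expression (puromycin-selected, pooled) and CUTO14 cells were seeded at 50K or 12.5K cells/well, respectively. They were treated 2 h with a 3-fold, 10-point compound series, lysed, and phospho-EGFR was read by AlphaLISA to give IC50.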
On the technique in general: Bead proximity is the source of the signal in Alpha formats.

In assay [5] the target is T2, EGFR exon 19del (Ba/F3 cells). The experiment in a line: Inhibitor activity on EGFR phosphorylation (pEGFR AlphaLISA, 2 h), Ba/F3 EGFR exon 19del. The settings on record: read-out: Del19 IC50 (pEGFR). The method, boiled down: as §2
Assay [6] concerns the target T3, EGFR L858R/C797S (Ba/F3 cells). The experiment in a line: Inhibitor activity on EGFR phosphorylation (pEGFR AlphaLISA, 2 h), Ba/F3 EGFR L858R/C797S. The method, boiled down: as §2
The next assay has as its target T4, EGFR WT (Ba/F3 cells) (Homo sapiens, UniProt P00533).
T4 construct: expressed in transfected cells; host or cells: Ba/F3 (murine pro-B cells), retroviral transduction, puromycin selection, maintained with EGF
The experiment in a line: Inhibitor activity on EGFR-dependent cell growth (CellTiter-Glo, 72 h), Ba/F3 EGFR WT. The settings on record: read-out: BaF3 WT IC50. The method, boiled down: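 This growth assay used Ba/F3 cells that depend on wild-type EGFR and are kept in EGF without IL3. Compounds were made up as 10 mM DMSO stocks and diluted 3-fold over 10 points. 120 nL went onto 600 cells/well. After 72 hours, 40 μL CellTiter-Glo was added and luminescence read on EnVision after 30 min.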

The target of assay [7] is T5, EGFR exon 20 NPG Ins D770_N771 (Ba/F3 cells) (Homo sapiens, UniProt P00533, INS770NPG).
T5 construct: expressed in transfected cells; host or cells: Ba/F3 (murine pro-B cells), retroviral transduction, puromycin selection, IL3-independent pool
The experiment in a line: Inhibitor activity on EGFR-dependent cell growth (CellTiter-Glo, 72 h), Ba/F3 EGFR exon 20 NPG Ins. The settings on record: read-out: BaF3 NPG IC50. The essentials:
(§3)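 IC50s derive from a sigmoidal dose–response fit of CellTiter-Glo signal. The signal was normalised between […]-treated cells and cell-free medium. Ba/F3 mutant-EGFR cells, seeded at 400–800/well depending on the line, had 72 h of exposure to a 10-point, 3-fold compound series.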

Assay [8] has as its target T6, EGFR exon 20 ASV Ins V769_D770 (Ba/F3 cells) (Homo sapiens, UniProt P00533, INS769ASV).
T6 construct: expressed in transfected cells; host or cells: Ba/F3 (murine pro-B cells), retroviral transduction, puromycin selection, IL3-independent pool
As to the kind of experiment: Inhibitor activity on EGFR-dependent cell growth (CellTiter-Glo, 72 h), Ba/F3 EGFR exon 20 ASV Ins. Conditions: read-out: BaF3 ASV IC50. The essentials: as §3

Assay [9] has as its target T7, EGFR exon 20 SVD Ins D770_N771 (Ba/F3 cells) (Homo sapiens, UniProt P00533, INS770SVD).
T7 construct: expressed in transfected cells; host or cells: Ba/F3 (murine pro-B cells), retroviral transduction, puromycin selection, IL3-independent pool
As to the kind of experiment: Inhibitor activity on EGFR-dependent cell growth (CellTiter-Glo, 72 h), Ba/F3 EGFR exon 20 SVD Ins. Conditions: read-out: BaF3 SVD IC50. The essentials: as §3

Assay [10] concerns the target T8, EGFR exon 20 FQEA Ins A763_V764 (Ba/F3 cells) (Homo sapiens, UniProt P00533, INS763FQEA).
T8 construct: expressed in transfected cells; host or cells: Ba/F3 (murine pro-B cells), retroviral transduction, puromycin selection, IL3-independent pool
As to the kind of experiment: Inhibitor activity on EGFR-dependent cell growth (CellTiter-Glo, 72 h), Ba/F3 EGFR exon 20 FQEA Ins. The settings on record: read-out: BaF3 FQEA IC50. The method, boiled down:
as §1

The target in assay [11] is T5, EGFR exon 20 NPG Ins D770_N771 (Ba/F3 cells). As to the kind of experiment: Inhibitor activity on EGFR phosphorylation (pEGFR AlphaLISA, 2 h), Ba/F3 EGFR exon 20 NPG Ins. The method, boiled down:
as §2

For assay [12], the target named is T6, EGFR exon 20 ASV Ins V769_D770 (Ba/F3 cells). The experiment in a line: Inhibitor activity on EGFR phosphorylation (pEGFR AlphaLISA, 2 h), Ba/F3 EGFR exon 20 ASV Ins. The settings on record: EGFR phosphorylation, AlphaLISA, 2 hours; read-out: ASV IC50 (pEGFR). The method, boiled down:
as §2

In assay [13] the target is T7, EGFR exon 20 SVD Ins D770_N771 (Ba/F3 cells). As to the kind of experiment: Inhibitor activity on EGFR phosphorylation (pEGFR AlphaLISA, 2 h), Ba/F3 EGFR exon 20 SVD Ins. An excerpt: Example B. Inhibitor Activity on EGFR phosphorylation (pEGFR)
EGFR mutant Ba/F3 cells were generated by transduction with retrovirus containing vectors expressing EGFR L858R, EGFR exon 19del, EGFR L858R/C797S, EGFR exon 20 NPG Ins D770_N771, EGFR exon 20 ASV Ins V769_D770, or EGFR exon 20 SVD Ins D770_N771 genes along with a puromycin selection marker. Transduced cells are selected with puromycin for 7 days and are then be transferred into culture media without Interleukin 3 (IL3). Surviving cells are confirmed to express EGFR by Western blot and maintained as a pool. CUTO14 cells were obtained from Dr. Robert C. Doebele at the University of Colorado. The IC50 date are included in Table 6 and Table 7.
1.1 Cells are harvested from flask into cell culture medium and the cell number counted.
1.2 Cells are diluted with culture medium to the desired density and 40 μL of cell suspension is added into each well of 384-well cell culture plate and the seeding density is 50K cells/well (Ba/F3) or 12.5K cells/well (CUTO14).
2 Compound Preparation and Treatment
2.1 Test compounds are dissolved to 10 mM in a DMSO stock solution. 45 μL of stock solution is transferred to a 384 polypropylene plate (pp-plate). Perform 3-fold, 10-point dilution via transferring 15 μL compound into 30 μL DMSO using a TECAN (EVO200) liquid handler.
2.2 Spin plates at room temperature at 1,000 RPM for 1 minute.
2.3 Transfer 5 nL of diluted compound from compound source plate into the cell plate.
2.4 After compound treatment for 2 hours, perform pEGFR detection by AlphaLISA for compound treatment plates as described in “Detection” section.
3 Detection by pEGFR AlphaLISA (Perkin-Elmer)
3.1 Plates are removed from incubators and equilibrated at room temperature for 10 minutes, and media was removed
3.2 10 μL of lysis buffer is added and plates shaken at 600 rpm for 1 hr.
3.3 Prepare acceptor mix just before use and dispense 5 μL of acceptor mix to all the wells. Shake 350 rpm for Ihr in the dark
3.4 Prepare donor mix under low light conditions prior to use. Dispense 5 μL of donor mix to all the wells. Mix well on the shaker, seal and wrap in aluminum foil and incubate 1.5 hrs at room temperature in the dark
3.5 Transfer 18.5 μL mixture to OptiPlate 384, and read using an Envision. The IC50 date were included in Table 6 and Table 7.

The target of the next assay is EGFR (CUTO14 cells) (Homo sapiens, UniProt P00533). As to the kind of experiment: Inhibitor activity on EGFR phosphorylation (pEGFR AlphaLISA, 2 h), CUTO14 cells. The method, boiled down: as §2
EGFR (CUTO14 cells), sequence (P00533 with tags, fused parts or gaps DUP767-769): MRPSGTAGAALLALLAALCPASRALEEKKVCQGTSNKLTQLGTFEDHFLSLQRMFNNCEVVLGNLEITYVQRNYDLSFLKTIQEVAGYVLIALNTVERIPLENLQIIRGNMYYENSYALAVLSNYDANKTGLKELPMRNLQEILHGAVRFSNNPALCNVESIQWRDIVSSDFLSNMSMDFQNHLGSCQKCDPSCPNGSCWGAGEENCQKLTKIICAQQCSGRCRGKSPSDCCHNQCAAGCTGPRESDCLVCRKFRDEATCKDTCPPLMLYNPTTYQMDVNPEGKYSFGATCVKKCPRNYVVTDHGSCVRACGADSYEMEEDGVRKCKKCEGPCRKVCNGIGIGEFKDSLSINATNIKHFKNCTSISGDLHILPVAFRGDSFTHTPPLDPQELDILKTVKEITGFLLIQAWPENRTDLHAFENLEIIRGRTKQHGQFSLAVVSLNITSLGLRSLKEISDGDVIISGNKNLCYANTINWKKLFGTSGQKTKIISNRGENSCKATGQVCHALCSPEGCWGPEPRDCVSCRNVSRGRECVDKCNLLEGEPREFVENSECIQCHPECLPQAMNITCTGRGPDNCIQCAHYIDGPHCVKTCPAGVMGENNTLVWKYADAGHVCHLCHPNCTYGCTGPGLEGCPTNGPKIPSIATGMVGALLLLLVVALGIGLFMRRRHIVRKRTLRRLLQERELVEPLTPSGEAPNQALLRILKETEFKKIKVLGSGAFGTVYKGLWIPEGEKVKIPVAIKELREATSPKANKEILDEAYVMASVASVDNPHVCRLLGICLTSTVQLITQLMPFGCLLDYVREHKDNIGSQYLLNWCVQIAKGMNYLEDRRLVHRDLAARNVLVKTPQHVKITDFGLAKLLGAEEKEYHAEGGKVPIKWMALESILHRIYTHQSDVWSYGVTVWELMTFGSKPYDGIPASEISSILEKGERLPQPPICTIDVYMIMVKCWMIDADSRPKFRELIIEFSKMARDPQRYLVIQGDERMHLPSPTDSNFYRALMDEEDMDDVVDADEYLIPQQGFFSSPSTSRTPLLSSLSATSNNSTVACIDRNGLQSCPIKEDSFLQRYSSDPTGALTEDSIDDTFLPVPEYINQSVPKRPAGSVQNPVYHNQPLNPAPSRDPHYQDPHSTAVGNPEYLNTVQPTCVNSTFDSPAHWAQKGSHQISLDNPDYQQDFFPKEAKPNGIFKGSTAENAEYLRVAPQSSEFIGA

T1 sequence (P00533 25-1210 L858R): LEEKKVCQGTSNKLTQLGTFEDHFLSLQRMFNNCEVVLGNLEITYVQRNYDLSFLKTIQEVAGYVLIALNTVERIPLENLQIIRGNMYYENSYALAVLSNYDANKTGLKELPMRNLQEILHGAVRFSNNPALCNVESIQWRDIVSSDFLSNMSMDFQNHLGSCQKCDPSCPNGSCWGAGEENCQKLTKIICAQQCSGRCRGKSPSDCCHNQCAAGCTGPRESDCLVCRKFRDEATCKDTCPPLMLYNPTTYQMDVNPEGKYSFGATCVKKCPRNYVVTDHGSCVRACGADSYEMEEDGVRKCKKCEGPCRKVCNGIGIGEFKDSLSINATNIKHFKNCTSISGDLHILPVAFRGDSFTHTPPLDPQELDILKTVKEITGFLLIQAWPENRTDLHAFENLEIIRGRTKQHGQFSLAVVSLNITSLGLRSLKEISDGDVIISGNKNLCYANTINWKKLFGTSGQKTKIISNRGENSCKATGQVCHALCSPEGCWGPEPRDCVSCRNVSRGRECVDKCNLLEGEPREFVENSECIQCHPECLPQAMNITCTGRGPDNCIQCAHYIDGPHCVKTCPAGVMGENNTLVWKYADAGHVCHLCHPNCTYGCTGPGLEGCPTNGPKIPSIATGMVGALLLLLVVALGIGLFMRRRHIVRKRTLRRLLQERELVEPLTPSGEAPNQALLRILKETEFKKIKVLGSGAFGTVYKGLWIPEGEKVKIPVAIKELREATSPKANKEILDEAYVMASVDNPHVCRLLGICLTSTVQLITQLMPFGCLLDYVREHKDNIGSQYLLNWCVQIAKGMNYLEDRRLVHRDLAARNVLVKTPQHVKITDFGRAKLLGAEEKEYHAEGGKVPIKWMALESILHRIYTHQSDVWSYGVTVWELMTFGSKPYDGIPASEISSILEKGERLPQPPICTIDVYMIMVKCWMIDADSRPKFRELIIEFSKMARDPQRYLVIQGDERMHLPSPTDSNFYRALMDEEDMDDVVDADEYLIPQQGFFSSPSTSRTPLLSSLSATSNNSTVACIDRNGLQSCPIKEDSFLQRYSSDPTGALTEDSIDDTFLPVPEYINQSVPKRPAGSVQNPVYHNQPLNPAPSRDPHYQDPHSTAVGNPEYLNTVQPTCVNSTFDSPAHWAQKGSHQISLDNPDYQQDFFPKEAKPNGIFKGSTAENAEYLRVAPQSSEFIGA
T7 sequence (P00533 with tags, fused parts or gaps INS770SVD): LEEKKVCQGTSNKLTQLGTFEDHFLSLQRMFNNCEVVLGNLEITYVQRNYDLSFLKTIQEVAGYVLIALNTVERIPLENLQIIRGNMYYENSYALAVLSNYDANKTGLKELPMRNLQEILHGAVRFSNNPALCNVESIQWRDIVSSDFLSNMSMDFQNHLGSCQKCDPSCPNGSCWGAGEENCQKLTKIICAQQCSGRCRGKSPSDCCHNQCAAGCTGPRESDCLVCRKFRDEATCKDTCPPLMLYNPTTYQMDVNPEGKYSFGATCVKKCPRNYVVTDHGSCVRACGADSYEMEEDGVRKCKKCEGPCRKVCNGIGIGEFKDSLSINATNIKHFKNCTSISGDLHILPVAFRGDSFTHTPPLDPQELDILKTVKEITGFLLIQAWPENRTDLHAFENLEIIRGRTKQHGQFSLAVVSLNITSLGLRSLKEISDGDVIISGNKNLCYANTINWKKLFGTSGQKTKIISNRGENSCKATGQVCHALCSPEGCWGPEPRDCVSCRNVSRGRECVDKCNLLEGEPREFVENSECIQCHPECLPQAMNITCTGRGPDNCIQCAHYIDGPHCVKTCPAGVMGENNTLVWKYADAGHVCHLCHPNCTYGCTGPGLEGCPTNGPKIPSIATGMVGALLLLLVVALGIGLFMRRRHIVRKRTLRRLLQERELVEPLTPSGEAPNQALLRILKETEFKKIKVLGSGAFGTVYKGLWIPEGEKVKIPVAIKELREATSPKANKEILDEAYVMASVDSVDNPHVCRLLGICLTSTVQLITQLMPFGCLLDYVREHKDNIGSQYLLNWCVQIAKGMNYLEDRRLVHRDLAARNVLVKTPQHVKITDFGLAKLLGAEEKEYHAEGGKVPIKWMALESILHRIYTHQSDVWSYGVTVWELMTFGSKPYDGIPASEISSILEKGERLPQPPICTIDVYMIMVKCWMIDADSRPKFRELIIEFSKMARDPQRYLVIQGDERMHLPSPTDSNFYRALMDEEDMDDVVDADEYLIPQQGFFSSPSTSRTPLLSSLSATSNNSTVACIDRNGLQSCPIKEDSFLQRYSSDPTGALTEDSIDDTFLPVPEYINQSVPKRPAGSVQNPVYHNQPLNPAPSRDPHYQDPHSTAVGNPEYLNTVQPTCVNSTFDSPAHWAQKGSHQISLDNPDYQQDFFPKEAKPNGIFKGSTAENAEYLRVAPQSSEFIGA
T8 sequence (P00533 with tags, fused parts or gaps INS763FQEA): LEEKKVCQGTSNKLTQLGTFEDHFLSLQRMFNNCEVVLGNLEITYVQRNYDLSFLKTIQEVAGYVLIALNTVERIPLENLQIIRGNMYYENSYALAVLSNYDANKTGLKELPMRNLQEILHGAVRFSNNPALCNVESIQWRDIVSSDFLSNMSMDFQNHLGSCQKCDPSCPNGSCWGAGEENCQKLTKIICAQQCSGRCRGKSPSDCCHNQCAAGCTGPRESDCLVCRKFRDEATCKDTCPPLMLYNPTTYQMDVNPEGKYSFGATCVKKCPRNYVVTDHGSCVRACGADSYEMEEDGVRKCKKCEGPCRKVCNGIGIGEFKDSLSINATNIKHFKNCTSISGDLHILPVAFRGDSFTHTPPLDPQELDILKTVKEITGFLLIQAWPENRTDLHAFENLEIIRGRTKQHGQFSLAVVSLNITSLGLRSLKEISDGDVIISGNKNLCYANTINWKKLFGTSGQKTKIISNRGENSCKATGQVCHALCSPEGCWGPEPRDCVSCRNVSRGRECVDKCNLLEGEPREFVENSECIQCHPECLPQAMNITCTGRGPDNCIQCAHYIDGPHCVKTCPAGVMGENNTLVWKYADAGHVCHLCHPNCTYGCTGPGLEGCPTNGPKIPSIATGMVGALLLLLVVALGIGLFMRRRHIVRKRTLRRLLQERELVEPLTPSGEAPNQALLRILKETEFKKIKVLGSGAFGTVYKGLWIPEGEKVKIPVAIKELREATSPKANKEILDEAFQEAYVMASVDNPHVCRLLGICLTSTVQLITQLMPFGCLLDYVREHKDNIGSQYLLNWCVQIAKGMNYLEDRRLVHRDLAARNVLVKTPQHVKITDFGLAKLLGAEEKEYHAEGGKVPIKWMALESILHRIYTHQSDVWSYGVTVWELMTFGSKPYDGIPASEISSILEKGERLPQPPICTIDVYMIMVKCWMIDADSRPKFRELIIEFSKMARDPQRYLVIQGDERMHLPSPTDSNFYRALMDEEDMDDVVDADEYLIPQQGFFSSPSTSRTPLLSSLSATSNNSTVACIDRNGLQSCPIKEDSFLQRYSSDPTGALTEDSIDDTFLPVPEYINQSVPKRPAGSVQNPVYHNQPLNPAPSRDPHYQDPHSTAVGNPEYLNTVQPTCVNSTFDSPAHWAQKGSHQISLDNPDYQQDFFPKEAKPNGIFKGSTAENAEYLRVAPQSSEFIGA

For `COCC[C@@H]1CNC(=O)c2c1[nH]c(-c1ccncc1F)c2Nc1cccc(F)c1OC` [421b], the IC50 (at EGFR L858R (Ba/F3 cells) [1]; in [2]; in assay [3]; on EGFR L858R (Ba/F3 cells) [4]; in assay [5]; in assay [6]) was below 0.1 µM in each case. For the same compound, the IC50 was 0.1 to 1 µM on EGFR WT (Ba/F3 cells); below 0.1 µM in assay [7]; below 0.1 µM in assay [8]; below 0.1 µM in assay [9]; below 0.1 µM in [10]; below 0.1 µM in [11]. For the same compound, the IC50 (in assay [12]; in assay [13]; on EGFR (CUTO14 cells)) was below 0.1 µM each time.

For the compound `COc1c(F)cccc1Nc1c(-c2ccncc2F)[nH]c2c1C(=O)NC[C@@H]2CC1COCCO1` (stereo in doubt) [Compound 525, (7S)-7-[(2R)-1,4-dioxan-2-ylmethyl]-3-[(3-fluoro-2-methoxyphenyl)amino]-2-(3-fluoropyridin-4-yl)-1H,5H,6H,7H-pyrrolo[3,2-c]pyridin-4-one], the IC50 (at EGFR L858R (Ba/F3 cells) [1]; in [2]; in [3]; at EGFR L858R (Ba/F3 cells) [4]; in assay [5]; in [6]) was below 0.1 µM throughout. Further, the IC50 is 0.1 to 1 µM at EGFR WT (Ba/F3 cells); below 0.1 µM in assay [7]; below 0.1 µM in [8]; below 0.1 µM in assay [9]; below 0.1 µM in [10]; below 0.1 µM in assay [11]. The IC50 (in [12]; in [13]; on EGFR (CUTO14 cells)) was below 0.1 µM throughout.

On to `COCC[C@H]1CNC(=O)c2c1[nH]c(-c1ccnc(C)n1)c2Nc1cccc(Cl)c1OC` [463b], for which the IC50 (at EGFR L858R (Ba/F3 cells) [1]; in assay [2]; in assay [3]; on EGFR L858R (Ba/F3 cells) [4]; in assay [5]; in assay [6]) was below 0.1 µM in each case. The IC50 on EGFR WT (Ba/F3 cells) was 0.1 to 1 µM; in assay [7], below 0.1 µM; in [8], below 0.1 µM; in assay [9], below 0.1 µM; in [10], below 0.1 µM; in assay [11], below 0.1 µM. For the same compound, the IC50 (in assay [12]; in assay [13]; on EGFR (CUTO14 cells)) was below 0.1 µM each time.

Regarding `COc1c(Cl)cccc1Nc1c(-c2ccncc2F)[nH]c2c1C(=O)NC[C@@]21CCN(CC(F)(F)F)C1` [compound 817], the IC50 (at EGFR L858R (Ba/F3 cells) [1]; in assay [2]; in [3]; on EGFR L858R (Ba/F3 cells) [4]; in assay [5]; in assay [6]) was below 0.1 µM throughout. Further, the IC50 was 0.1 to 1 µM at EGFR WT (Ba/F3 cells); below 0.1 µM in [7]; below 0.1 µM in assay [8]; below 0.1 µM in assay [9]; below 0.1 µM in assay [10]; below 0.1 µM in [11]. For the same compound, the IC50 (in assay [12]; in assay [13]; against EGFR (CUTO14 cells)) was below 0.1 µM throughout.

As to `COCC[C@@H]1CNC(=O)c2c1[nH]c(-c1ccncn1)c2Nc1cccc(Cl)c1OC` [445a], the IC50 (on EGFR L858R (Ba/F3 cells) [1]; in assay [2]; in [3]; at EGFR L858R (Ba/F3 cells) [4]; in assay [5]; in [6]) was below 0.1 µM throughout. In addition, the IC50 on EGFR WT (Ba/F3 cells) is 0.1 to 1 µM; in [7] it was below 0.1 µM; in assay [8] it was below 0.1 µM; in [9] it was below 0.1 µM; in assay [10] it was below 0.1 µM; in [11] it was below 0.1 µM. Besides, the IC50 (in assay [12]; in assay [13]; at EGFR (CUTO14 cells)) was below 0.1 µM in each case.
